Reference: ChEMBL document CHEMBL1201862, “PubChem BioAssay data set” (2004)
Calls of active or inactive are those of the source.

Experiments:
cells [1] = assay type: functional, cell-based
cells [2] = assay type: functional, cell-based; remark: listed apart in the source
[3] = target: T1, Replicative DNA helicase DnaB (Mycobacterium tuberculosis, UniProt P9WMR3); experiment: DnaB intein splicing inhibitors, dose response, biochemical, cell-free fluorescence (AID 449749); assay type: functional
T1 sequence (P9WMR3 whole entry): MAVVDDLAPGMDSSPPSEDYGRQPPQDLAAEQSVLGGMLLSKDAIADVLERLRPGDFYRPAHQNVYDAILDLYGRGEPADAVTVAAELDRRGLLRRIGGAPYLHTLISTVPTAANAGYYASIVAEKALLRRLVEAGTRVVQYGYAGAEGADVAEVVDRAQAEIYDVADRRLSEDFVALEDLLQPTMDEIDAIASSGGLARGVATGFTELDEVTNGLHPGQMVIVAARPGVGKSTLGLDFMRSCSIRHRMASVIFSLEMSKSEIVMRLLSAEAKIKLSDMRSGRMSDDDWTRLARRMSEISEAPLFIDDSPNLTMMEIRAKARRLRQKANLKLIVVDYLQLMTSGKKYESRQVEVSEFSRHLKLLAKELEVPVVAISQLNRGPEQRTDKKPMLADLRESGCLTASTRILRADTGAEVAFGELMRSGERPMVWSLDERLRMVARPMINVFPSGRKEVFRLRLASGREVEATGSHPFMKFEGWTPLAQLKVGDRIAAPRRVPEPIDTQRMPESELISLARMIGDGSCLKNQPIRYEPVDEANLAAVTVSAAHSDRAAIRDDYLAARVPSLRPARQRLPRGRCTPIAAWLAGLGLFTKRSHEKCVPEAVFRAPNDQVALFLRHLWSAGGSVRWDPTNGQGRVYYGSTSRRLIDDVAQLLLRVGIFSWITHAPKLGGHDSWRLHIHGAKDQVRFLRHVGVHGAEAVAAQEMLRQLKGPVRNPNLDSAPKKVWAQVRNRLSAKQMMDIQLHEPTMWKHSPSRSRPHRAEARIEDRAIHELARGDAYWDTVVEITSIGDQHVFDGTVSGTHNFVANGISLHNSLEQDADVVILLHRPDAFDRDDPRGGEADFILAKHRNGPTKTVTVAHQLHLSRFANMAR

Protein RecA = target: T2, Protein RecA (Mycobacterium tuberculosis, UniProt P9WHJ3); experiment: Fluorescence Cell-Free Homogeneous Dose Retest to Identify Inhibitors of RecA-Intein Splicing Activity. [Related pubchem assays (depositor defined):AID2097, AID2223, AID489010, AID492950]; assay type: functional
T2 sequence (P9WHJ3 whole entry): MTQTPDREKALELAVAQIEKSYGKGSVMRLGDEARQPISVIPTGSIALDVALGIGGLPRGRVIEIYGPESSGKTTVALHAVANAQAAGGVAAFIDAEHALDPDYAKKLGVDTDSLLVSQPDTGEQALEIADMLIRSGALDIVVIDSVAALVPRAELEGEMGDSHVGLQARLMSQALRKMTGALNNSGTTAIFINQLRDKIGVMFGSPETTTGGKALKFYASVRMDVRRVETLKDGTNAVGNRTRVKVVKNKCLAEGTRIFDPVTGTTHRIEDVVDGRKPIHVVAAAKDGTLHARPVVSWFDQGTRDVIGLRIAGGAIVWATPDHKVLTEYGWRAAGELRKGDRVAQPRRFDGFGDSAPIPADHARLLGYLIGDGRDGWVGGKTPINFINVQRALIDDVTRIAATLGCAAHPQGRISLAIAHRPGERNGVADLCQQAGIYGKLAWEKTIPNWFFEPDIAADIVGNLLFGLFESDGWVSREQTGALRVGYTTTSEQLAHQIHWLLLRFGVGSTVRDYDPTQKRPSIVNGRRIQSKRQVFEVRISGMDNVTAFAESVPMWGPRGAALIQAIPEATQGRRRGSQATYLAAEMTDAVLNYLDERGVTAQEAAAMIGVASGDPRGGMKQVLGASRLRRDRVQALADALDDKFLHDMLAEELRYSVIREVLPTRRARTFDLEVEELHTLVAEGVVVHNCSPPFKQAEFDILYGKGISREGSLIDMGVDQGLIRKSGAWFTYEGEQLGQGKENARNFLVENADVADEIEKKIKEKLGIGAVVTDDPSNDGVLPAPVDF

Paired box protein Pax-8 = Paired box protein Pax-8 (Homo sapiens, UniProt Q06710); experiment: inhibitors of PAX8-driven TPO luciferase reporter, dose response, RMG-I cells, cherry-pick (AID 687027); assay type: functional, cell-based;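 further: luciferase reporter driven by Pax8 target thyroperoxidase promoter measured by SteadyGlo luminescence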
Paired box protein Pax-8, sequence (Q06710 whole entry): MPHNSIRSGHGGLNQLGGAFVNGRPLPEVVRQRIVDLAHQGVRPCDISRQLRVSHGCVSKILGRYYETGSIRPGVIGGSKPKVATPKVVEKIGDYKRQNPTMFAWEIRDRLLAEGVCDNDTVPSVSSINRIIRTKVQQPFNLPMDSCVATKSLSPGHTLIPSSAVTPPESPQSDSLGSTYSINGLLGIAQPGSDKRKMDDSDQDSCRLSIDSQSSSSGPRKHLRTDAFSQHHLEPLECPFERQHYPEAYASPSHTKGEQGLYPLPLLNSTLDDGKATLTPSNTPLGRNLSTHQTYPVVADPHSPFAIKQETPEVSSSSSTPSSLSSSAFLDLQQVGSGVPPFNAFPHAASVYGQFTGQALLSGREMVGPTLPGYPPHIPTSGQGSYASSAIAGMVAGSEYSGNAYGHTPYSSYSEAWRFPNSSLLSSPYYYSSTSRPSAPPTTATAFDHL

[4] = cytotoxicity in OVCAR8 ovarian cancer cells, dose response, PAX8 project, cell-based, plate reader, dry powder samples (AID 743197); assay type: functional; details: OVCAR-8
[5] = intracellular Trypanosoma cruzi inhibitors in host cells – cell-based, plate reader, cherry-pick samples, set 3, dose response (AID 651818); assay type: functional;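 further: compounds incubated with infected cells for about four days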
Aminopeptidase N = target: T3, Aminopeptidase N (Plasmodium falciparum FcB1/Columbia, UniProt O96935); experiment: P. falciparum M1AAP inhibitors, biochemical, fluorogenic H-Leu-NHMec substrate, 1536-well (AID 1445); parameters: species or system Plasmodium falciparum 3D7, 3D7
T3 sequence (O96935 whole entry): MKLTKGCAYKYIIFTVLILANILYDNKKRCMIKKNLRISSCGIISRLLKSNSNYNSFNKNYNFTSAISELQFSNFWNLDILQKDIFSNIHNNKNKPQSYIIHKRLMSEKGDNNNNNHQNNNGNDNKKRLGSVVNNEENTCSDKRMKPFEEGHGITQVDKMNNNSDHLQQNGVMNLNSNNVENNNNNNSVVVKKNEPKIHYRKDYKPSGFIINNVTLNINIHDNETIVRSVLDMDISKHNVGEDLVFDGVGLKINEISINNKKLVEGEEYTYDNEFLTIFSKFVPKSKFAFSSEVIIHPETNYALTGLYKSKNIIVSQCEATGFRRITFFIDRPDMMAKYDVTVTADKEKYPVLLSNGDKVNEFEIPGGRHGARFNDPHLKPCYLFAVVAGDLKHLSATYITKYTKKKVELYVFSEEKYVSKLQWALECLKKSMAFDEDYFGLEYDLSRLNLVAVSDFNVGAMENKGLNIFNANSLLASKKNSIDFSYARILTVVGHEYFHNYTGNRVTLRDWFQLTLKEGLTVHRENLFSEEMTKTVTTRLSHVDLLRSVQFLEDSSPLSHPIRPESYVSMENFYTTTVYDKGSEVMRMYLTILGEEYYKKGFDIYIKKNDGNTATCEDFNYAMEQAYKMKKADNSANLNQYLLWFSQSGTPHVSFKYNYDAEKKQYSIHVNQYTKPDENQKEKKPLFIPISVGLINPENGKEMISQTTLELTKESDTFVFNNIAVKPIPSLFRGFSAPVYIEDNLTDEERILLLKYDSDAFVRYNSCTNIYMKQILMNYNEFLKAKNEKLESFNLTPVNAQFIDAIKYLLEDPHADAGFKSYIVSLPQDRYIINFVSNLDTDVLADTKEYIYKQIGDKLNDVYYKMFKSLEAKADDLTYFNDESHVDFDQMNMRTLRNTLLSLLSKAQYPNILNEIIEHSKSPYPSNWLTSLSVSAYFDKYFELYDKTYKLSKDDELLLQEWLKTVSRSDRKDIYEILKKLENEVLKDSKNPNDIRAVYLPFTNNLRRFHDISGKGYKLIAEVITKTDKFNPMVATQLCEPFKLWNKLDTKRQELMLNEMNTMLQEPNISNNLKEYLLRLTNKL

[6] = Luminescence Cell-Based Dose Retest to Confirm Inhibitors of Cancer Stem Cells. [Related pubchem assays (depositor defined):AID2717, AID2721]; assay type: functional; details: Homo sapiens
INS1 = experiment: beta cell apoptosis inhibitors, cytokine rescue, dose response, luminescence, retest (AID 449756); assay type: functional, cell-based; details: Rattus norvegicus;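 further: cell death triggered by IL-1 beta plus TNF-alpha plus IFN-gamma mixture; protective hits raise ATP signal compared with cytokine alone wells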
[7] = Shn3 3'UTR reporter inhibitors, dose response, cell-based, Clone20 osteoblasts, firefly luciferase, cherry-picked (AID 624132); assay type: functional;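 further: firefly luciferase luminescence from reporter carrying the Shn3 3'UTR in osteoblasts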
[8] = HepG2 cell cytotoxicity, dose response, cytotoxicity control for Shn3 inhibitor project, CellTiter-Glo, cherry-picked (AID 624134); assay type: functional, cell-based
[9] = control 3'UTR Renilla luciferase suppression, dose response, counter-screen for Shn3 inhibitor project, cell-based, Clone20-Shn3RL, cherry-picked (AID 624133); assay type: functional

SMILES: COC(CN(C(=O)CCl)C(C(=O)NC1CCCCC1)c1ccc(Cl)cc1)OC (centres undefined)
- EC50 (cells [1]): > 350 µM (not active)
- EC50 (cells [2]): > 350 µM (not active)
- AC50 [3]: 15.8 µM (active)
- EC50 (Protein RecA): 1.81 µM (active)

SMILES: C[C@@H]1CN([C@H](C)CO)C(=O)c2cc(NS(=O)(=O)c3ccccc3)ccc2O[C@@H](C)CCCCO[C@H]1CN(C)Cc1ccc(Cl)c(Cl)c1
- AC50 (Paired box protein Pax-8): 9.93 µM (active)
- AC50 [4]: 45 µM (active)

SMILES: C[C@@H]1CN([C@@H](C)CO)C(=O)c2cccc(NC(=O)C3CCCCC3)c2O[C@H]1CN(C)Cc1ccc(-c2ccccc2)cc1
- AC50 [5]: 3.29 µM (active)

SMILES: C[C@@H]1CN([C@H](C)CO)C(=O)c2cccc(NC(=O)c3ccncc3)c2O[C@@H]1CN(C)Cc1ccc(-c2ccccc2)cc1
- AC50 [5]: 4.37 µM (active)

SMILES: C[C@@H]1CCCCO[C@@H](CN(C)Cc2ccc(C(F)(F)F)cc2)[C@@H](C)CN([C@@H](C)CO)C(=O)c2cc(NS(=O)(=O)c3ccccc3)ccc2O1
- AC50 (Paired box protein Pax-8): 7.21 µM (active)
- AC50 [4]: > 70 µM (inactive)

SMILES: O=C(O)c1cccc(S(=O)(=O)Nc2ccc([N+](=O)[O-])cc2O)c1
- IC50 (Aminopeptidase N): 66.2 µM (active)

SMILES: Cc1noc(C)c1S(=O)(=O)Nc1ccc2c(c1)C(=O)N([C@H](C)CO)C[C@H](C)[C@@H](CN(C)C(=O)Nc1ccc(C(F)(F)F)cc1)OCCCC[C@@H](C)O2
- AC50 [5]: 1.19 µM (active)

SMILES: C[C@@H]1CN([C@@H](C)CO)C(=O)c2cccc(NC(=O)c3cnccn3)c2O[C@@H]1CN(C)Cc1ccc(C(=O)Nc2ccccc2N)cc1
- AC50 [5]: 2.35 µM (active)

SMILES: CC(C)(C)c1cc(C(=O)N/N=C/c2ccccc2O)n(-c2ccccc2)n1
- AC50 [6]: 3.05 µM (active)
- AC50 (INS1): 3.37 µM (active)
- AC50 [7]: 2.25 µM (active)
- AC50 [8]: 5.66 µM (active)
- AC50 [9]: 2.18 µM (active)

SMILES: C[C@@H]1CN([C@@H](C)CO)C(=O)Cc2cc(NC(=O)CCC(F)(F)F)ccc2O[C@@H]1CN(C)Cc1ccc(C(=O)Nc2ccccc2N)cc1
- AC50 [5]: 2.67 µM (active)
